For one series, the system named is A549. In words: Anticancer activity against human A549 cells assessed as reduction in cell viability at 40 uM measured after 48 hrs by CCK-8 method relative to control. Type of series: functional. On the technique in general: Tetrazolium assays rely on reduction of a dye to a coloured formazan, in cell work by metabolically active cells.
In the next series the test system is Pseudomonas syringae. In words: Antimicrobial activity against Pseudomonas syringae ATCC-BAA-2502 assessed as reduction in microbial growth by broth microdilution method. The format is functional.
A further series has as its system Klebsiella pneumoniae. In words: Antimicrobial activity against Klebsiella pneumoniae W5 assessed as reduction in microbial growth by broth microdilution method. Type of series: functional. Background: In broth dilution the organism is exposed to a series of concentrations in liquid medium.
The next series relates to Enterococcus. In words: Antimicrobial activity against Vancomycin-resistant Enterococci assessed as reduction in microbial growth by broth microdilution method. The format is functional.
Another series deals with Escherichia coli. In words: Antimicrobial activity against Escherichia coli CGMCC 1.3344 assessed as reduction in microbial growth by broth microdilution method. Type of series: functional.
A further series concerns Paracidovorax avenae. In words: Antimicrobial activity against Acidovorax avenae ATCC 19307 assessed as reduction in microbial growth by broth microdilution method. Type of series: functional.
The test system of a further series is Bacillus subtilis. In words: Antimicrobial activity against Bacillus subtilis ATCC 6051 assessed as reduction in microbial growth by broth microdilution method. The format is functional.
The next series concerns Xanthomonas oryzae. In words: Antimicrobial activity against Xanthomonas oryzae ATCC 35933 assessed as reduction in microbial growth by broth microdilution method. The format is functional.
The next series deals with SW480. In words: Anticancer activity against human SW480 cells assessed as reduction in cell viability at 40 uM measured after 48 hrs by CCK-8 method relative to control. Type of series: functional.
For series [1], the system named is RAW264.7. In words: Antiinflammatory activity in mouse RAW264.7 assessed as reduction in LPS-induced NO production incubated for 24 hrs by Griess method relative to control. Type of series: functional. On the set-up: concentration or dose not given beside the values.
In another series the test system is HepG2. In words: Anticancer activity against human HepG2 cells assessed as reduction in cell viability at 40 uM measured after 48 hrs by CCK-8 method relative to control. The format is functional.
The test system of another series is MCF7. In words: Anticancer activity against human MCF7 cells assessed as reduction in cell viability at 40 uM measured after 48 hrs by CCK-8 method relative to control. Type of series: functional.
A further series concerns Micrococcus luteus. In words: Antimicrobial activity against Micrococcus luteus ATCC 4685 assessed as reduction in microbial growth by broth microdilution method. The format is functional.
A further series relates to MDA-MB-231. In words: Anticancer activity against human MDA-MB-231 cells assessed as reduction in cell viability at 40 uM measured after 48 hrs by CCK-8 method relative to control. The format is functional.
The test system of series [2] is Staphylococcus aureus. In words: Antimicrobial activity against methicillin resistant Staphylococcus aureus assessed as reduction in microbial growth by broth microdilution method. The format is functional.
For series [3], the system named is RAW264.7. In words: Cytotoxicity against mouse RAW264.7 cells measured after 24hrs by CCK-8 method relative to control. The format is toxicity, cell-based. On the set-up: concentration or dose not given beside the values. Conditions: raw264.7, 24 h.
Series [4] deals with Staphylococcus aureus. In words: Antimicrobial activity against Staphylococcus aureus LV-B1 assessed as reduction in microbial growth by broth microdilution method. Type of series: functional.
The subject of another series is Shigella sonnei. In words: Antimicrobial activity against Shigella sonnei ZD12 assessed as reduction in microbial growth by broth microdilution method. The format is functional.
A further series deals with Staphylococcus capitis. In words: Antimicrobial activity against Staphylococcus capitis W7 assessed as reduction in microbial growth by broth microdilution method. Type of series: functional.

On to `C[C@H]1CC[C@@H](O)[C@]2(C)CC[C@@H](C(C)(C)O)[C@H](O)[C@@H]12`, for which the Activity in the series on A549 is listed as 0.97%; in the series with SW480, 10.33%; in the series on RAW264.7 [1], 3.3%; in the series on HepG2 it was -2.3%; with MCF7, 5.53%; in the series with MDA-MB-231, -2.4%. Moreover, in the series with RAW264.7 [3], the Activity turned out to be 88.18%. The minimal inhibitory concentration (MIC) in the series on Pseudomonas syringae, in the series with Klebsiella pneumoniae, in the series with Enterococcus, with Escherichia coli, in the series with Paracidovorax avenae and with Bacillus subtilis was over 128 µg/mL each time. The MIC in the series with Xanthomonas oryzae, in the series with Micrococcus luteus, in the series with Staphylococcus aureus [2], in the series with Staphylococcus aureus [4], in the series on Shigella sonnei and in the series on Staphylococcus capitis was over 128 µg/mL throughout.
As to `CN(C)[C@@H]1C(O)=C(C(N)=O)C(=O)[C@@]2(O)C(O)=C3C(=O)c4c(O)cccc4[C@@](C)(O)[C@H]3C[C@@H]12` [TETRACYCLINE], the MIC in the series on Pseudomonas syringae was over 128 µg/mL; in the series with Klebsiella pneumoniae it was over 128 µg/mL; with Enterococcus, 2 µg/mL; in the series on Escherichia coli it was 2 µg/mL; with Paracidovorax avenae, 4 µg/mL; in the series on Bacillus subtilis, 2 µg/mL. In addition, the MIC with Xanthomonas oryzae was 8 µg/mL; with Micrococcus luteus, 2 µg/mL; in the series on Staphylococcus aureus [2], 4 µg/mL; with Staphylococcus aureus [4], 0.5 µg/mL; in the series with Shigella sonnei it was 8 µg/mL; in the series with Staphylococcus capitis, 4 µg/mL.
As for `CC1(C)[C@H]2[C@@H]1CC[C@@]1(C)[C@H](O)CC[C@](O)(CO)[C@H]21`, the Activity with A549 is reported as 0.34%; in the series with SW480, 7.24%; with RAW264.7 [1], -3.05%; with HepG2, 3.99%; with MCF7, 11.1%; in the series on MDA-MB-231, 27.39%. Besides, the Activity in the series on RAW264.7 [3] was determined as 81.69%. Also, the MIC in the series on Pseudomonas syringae, in the series on Klebsiella pneumoniae, with Enterococcus, in the series on Escherichia coli, with Paracidovorax avenae and in the series on Bacillus subtilis was over 128 µg/mL in each case. In addition, the MIC in the series on Xanthomonas oryzae, with Micrococcus luteus, with Staphylococcus aureus [2], in the series on Staphylococcus aureus [4], in the series on Shigella sonnei and in the series with Staphylococcus capitis was over 128 µg/mL each time.
As for `CC1(C)[C@H]2/C=C(/C=O)CC[C@@H]3O[C@@]3(C)CC[C@@H]21`, the Activity in the series with A549 was 2.4%; in the series on SW480, -21.6%; in the series on RAW264.7 [1], -2.46%; in the series with HepG2, -4.51%; in the series on MCF7, 16.05%; in the series with MDA-MB-231, -2.33%. The Activity in the series on RAW264.7 [3] is on record as 81.51%. For the same compound, the MIC in the series on Pseudomonas syringae, with Klebsiella pneumoniae, in the series with Enterococcus, with Escherichia coli, in the series on Paracidovorax avenae and in the series with Bacillus subtilis was over 128 µg/mL throughout. Besides, the MIC in the series with Xanthomonas oryzae, with Micrococcus luteus, in the series with Staphylococcus aureus [2], in the series on Staphylococcus aureus [4], in the series on Shigella sonnei and in the series with Staphylococcus capitis was over 128 µg/mL each time.
In the case of `CC1=C[C@@H]2[C@@H](C(C)C)CC[C@@](C)(O)[C@@H]2CC1=O`, the Activity with A549 is on record as 8.55%; in the series on SW480, -22.26%; in the series on RAW264.7 [1], -11.3%; with HepG2, -9.79%; in the series with MCF7, 13.45%; in the series on MDA-MB-231 it was 20.55%. Further, the Activity with RAW264.7 [3] is recorded as 82.62%. Besides, the minimal inhibitory concentration (MIC) in the series on Pseudomonas syringae, in the series with Klebsiella pneumoniae, with Enterococcus, in the series on Escherichia coli, with Paracidovorax avenae and in the series with Bacillus subtilis was over 128 µg/mL each time. The MIC in the series with Xanthomonas oryzae, with Micrococcus luteus, in the series with Staphylococcus aureus [2], with Staphylococcus aureus [4], in the series on Shigella sonnei and with Staphylococcus capitis was over 128 µg/mL in each case.
In the case of `C/C1=C\CC/C(C=O)=C\[C@H]2[C@H](C[C@H]1O)C2(C)C`, the Activity in the series with A549 was -2.39%; in the series with SW480, -28.68%; with RAW264.7 [1] it was 1.33%; in the series on HepG2, -8.84%; in the series with MCF7, 1.32%; with MDA-MB-231 it was -11.44%. Also, the Activity in the series on RAW264.7 [3] came out at 89.61%. Besides, the MIC with Pseudomonas syringae, with Klebsiella pneumoniae, with Enterococcus, in the series on Escherichia coli, with Paracidovorax avenae and in the series on Bacillus subtilis was over 128 µg/mL throughout. Besides, the MIC with Xanthomonas oryzae, with Micrococcus luteus, with Staphylococcus aureus [2], in the series on Staphylococcus aureus [4], in the series with Shigella sonnei and with Staphylococcus capitis was over 128 µg/mL in each case.
With `C[C@H]1CC[C@@H]2[C@H]3[C@H]1OC(C)(C)[C@@H]3CC[C@@]2(C)O` (relative stereo), the Activity in the series with A549 is 12.03%; in the series on SW480 it was -11.92%; with RAW264.7 [1], -7.88%; in the series on HepG2, -8.24%; with MCF7, 14.7%; in the series on MDA-MB-231 it was 4.18%. For the same compound, in the series with RAW264.7 [3], the Activity stood at 94.77%. Besides, the MIC with Pseudomonas syringae, in the series with Klebsiella pneumoniae, with Enterococcus, in the series with Escherichia coli, in the series with Paracidovorax avenae and with Bacillus subtilis was over 128 µg/mL each time. The minimum inhibitory concentration (MIC) with Xanthomonas oryzae, with Micrococcus luteus, with Staphylococcus aureus [2], in the series on Staphylococcus aureus [4], in the series with Shigella sonnei and in the series with Staphylococcus capitis was over 128 µg/mL throughout.
For the compound `CC1=C[C@@H]2[C@@H](C(C)C)CC[C@@](C)(O)[C@@H]2CC1`, the Activity is recorded as 12.06% in the series on A549; 6.82% in the series with SW480; -4.95% in the series on RAW264.7 [1]; 4.12% in the series with HepG2; 18.49% in the series on MCF7; 32.06% in the series with MDA-MB-231. Also, the Activity in the series on RAW264.7 [3] is 90.3%. For the same compound, the MIC in the series on Pseudomonas syringae, in the series with Klebsiella pneumoniae, in the series with Enterococcus, with Escherichia coli, in the series on Paracidovorax avenae and in the series with Bacillus subtilis was over 128 µg/mL in each case. The MIC with Xanthomonas oryzae, with Micrococcus luteus, in the series on Staphylococcus aureus [2], in the series on Staphylococcus aureus [4], in the series on Shigella sonnei and in the series on Staphylococcus capitis was over 128 µg/mL each time.
With `CC1(C)[C@H]2/C=C(/CO)CC[C@@H]3O[C@@]3(C)CC[C@@H]21`, the Activity in the series on A549 is reported as 13%; in the series with SW480, -7.55%; in the series with RAW264.7 [1], -6.95%; with HepG2, -11.68%; in the series on MCF7 it was 14.53%; in the series with MDA-MB-231 it was 4.47%. Also, the Activity in the series with RAW264.7 [3] was found to be 8.25%. Besides, the MIC in the series with Pseudomonas syringae, with Klebsiella pneumoniae, with Enterococcus, with Escherichia coli, in the series with Paracidovorax avenae and with Bacillus subtilis was over 128 µg/mL each time. In addition, the MIC in the series with Xanthomonas oryzae, with Micrococcus luteus, with Staphylococcus aureus [2], in the series on Staphylococcus aureus [4], in the series with Shigella sonnei and in the series on Staphylococcus capitis was over 128 µg/mL each time.
Consider `CC1=C[C@@H]2[C@@H](C(C)C)CC[C@@](C)(O)[C@@H]2C[C@@H]1O`, for which the Activity in the series on A549 was 0.28%; in the series on SW480 it was -7.85%; with RAW264.7 [1] it was -1.33%; with HepG2, -1.38%; in the series on MCF7 it was 6.01%; in the series with MDA-MB-231, -7.21%. Moreover, the Activity with RAW264.7 [3] worked out at 82.75%. The MIC in the series on Pseudomonas syringae, with Klebsiella pneumoniae, with Enterococcus, with Escherichia coli, in the series on Paracidovorax avenae and in the series with Bacillus subtilis was over 128 µg/mL throughout. In addition, the MIC in the series with Xanthomonas oryzae, in the series on Micrococcus luteus, with Staphylococcus aureus [2], in the series with Staphylococcus aureus [4], with Shigella sonnei and in the series on Staphylococcus capitis was over 128 µg/mL throughout.

By MIC is commonly meant the smallest concentration in the dilution series that meets the test's criterion for growth inhibition.

For the origin of these results see ChEMBL document CHEMBL5357033, “Discovery of Diverse Sesquiterpenoids from Crossiella cryophila through Genome Mining and NMR Tracking” (J Nat Prod, 2024).
